Where two headings read alike, the source gives them in different places. Positions of bridges follow the written chain, without caps; N, C: chain ends. Non-standard residues stand in square brackets, D forms with d. Residues, ends and D or L forms follow the SMILES beside them. Chains are numbered I, II in the order given. No end group written: not given here. AEEA = NCCOCCOCC(=O)O

Experiment [1] deals with T1, CD40L-CD40 interaction (Homo sapiens, UniProt P29965).
T1 sequence (P29965 113-261 limits assumed): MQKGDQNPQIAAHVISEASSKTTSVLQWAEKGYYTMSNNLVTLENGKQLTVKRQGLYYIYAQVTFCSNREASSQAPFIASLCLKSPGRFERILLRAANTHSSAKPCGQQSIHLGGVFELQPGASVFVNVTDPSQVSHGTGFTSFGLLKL
Briefly: Chemiluminescent proximity assay (Alphascreen). Type of experiment: binding. The settings on record: for inhibition of the interaction between CD40L and CD40: in words, Alphascreen proximity assay. As to the method: In one example, the Alphascreen assay (PerkinElmer) was employed according to the manufacturer's instructions.
Homodimers and heterodimers were also assayed by chemiluminescent proximity assay for their ability to inhibit CD40L-CD40 interaction.
(Bead proximity is the source of the signal in Alpha formats.)

Experiment [2] deals with CD40L-induced CD86 expression on primary B-cells (UniProt P29965). Kind of experiment: Inhibition of CD40L-induced CD86 expression on primary B-cells (FACS). The note with it: for inhibition of CD40L-induced CD86 expression on primary B-cells: in words.
CD40L-induced CD86 expression on primary B-cells, sequence (P29965 whole entry): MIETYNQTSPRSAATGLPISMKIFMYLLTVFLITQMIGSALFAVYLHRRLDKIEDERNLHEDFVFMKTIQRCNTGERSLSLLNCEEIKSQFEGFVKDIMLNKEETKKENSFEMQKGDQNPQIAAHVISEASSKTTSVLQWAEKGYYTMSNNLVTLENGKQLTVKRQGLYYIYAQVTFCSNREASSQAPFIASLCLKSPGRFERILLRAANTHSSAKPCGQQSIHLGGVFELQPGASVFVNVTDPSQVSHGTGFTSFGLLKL
CD40L-induced CD86 expression on primary B-cells, sequence (P25942 21-277 partner): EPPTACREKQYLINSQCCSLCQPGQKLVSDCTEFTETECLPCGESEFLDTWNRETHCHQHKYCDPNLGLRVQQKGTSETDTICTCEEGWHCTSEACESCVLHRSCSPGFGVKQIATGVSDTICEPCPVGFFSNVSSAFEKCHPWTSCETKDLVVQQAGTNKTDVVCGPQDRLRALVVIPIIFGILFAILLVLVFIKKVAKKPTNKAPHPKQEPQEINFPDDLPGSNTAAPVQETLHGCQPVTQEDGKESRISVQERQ
Description: In one example, the ability of a peptide, analog or derivative of the invention to inhibit or reduce or delay expression of CD86 on primary B-cells was determined in the presence and absence of the peptides, analogs and derivatives of the invention. In particular, CD86 expression was determined by FACS.
As a control in these assays, LPS-induced expression of CD86 mediated by the Toll-like receptors TLR 2/4, and TNFα-induced cytoxicity, were also assayed to exclude effects mediated by ligands other than CD40L.
Experiment [3] concerns the target T2, CD40 ligand (UniProt P29965 108-261, limits assumed).
T2 construct: Used immobilised, soluble, or biotinylated on streptavidin beads; also called CD154; soluble CD40L
T2 sequence (looked up): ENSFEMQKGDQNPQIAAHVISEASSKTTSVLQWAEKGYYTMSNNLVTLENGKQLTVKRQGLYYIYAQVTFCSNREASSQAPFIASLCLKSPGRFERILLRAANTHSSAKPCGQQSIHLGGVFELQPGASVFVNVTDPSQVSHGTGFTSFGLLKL
Kind of experiment: Alphascreen, unmodified peptide, inhibition of CD40L/CD40-Fc.

Setting [4] is: PEGylated chiral (retro-inverted) analog, read-out: EC50(PEGylated) CD40L/CD40-Fc/BAF617.
[5] abbreviates: read-out: EC50 PEGylated peptide, PEGylated monomeric peptide.

Consider FYLYDRRFSSYFRFLFFLNYRPP [CD40L M1_9rd], for which the EC50 in experiment [1] (setting [4]) came to 14 nM.

For `CC[C@H](C)[C@H](NC(=O)[C@H](CO)NC(=O)[C@H](Cc1ccccc1)NC(=O)[C@@H](NC(=O)[C@H](CC(N)=O)NC(=O)[C@H](CCCCN)NC(=O)[C@@H](NC(=O)[C@H](CO)NC(=O)[C@H](Cc1ccccc1)NC(=O)[C@@H]1CCCN1C(=O)[C@H](Cc1c[nH]cn1)NC(=O)COCCOCCNC(=O)[C@@H](N)CSSC[C@H](N)C(=O)NCCOCCOCC(=O)N[C@@H](Cc1c[nH]cn1)C(=O)N1CCC[C@H]1C(=O)N[C@@H](Cc1ccccc1)C(=O)N[C@@H](CO)C(=O)N[C@H](C(=O)N[C@@H](CCCCN)C(=O)N[C@@H](CC(N)=O)C(=O)N[C@H](C(=O)N[C@@H](Cc1ccccc1)C(=O)N[C@@H](CO)C(=O)N[C@H](C(=O)N[C@@H](Cc1c[nH]c2ccccc12)C(=O)N[C@@H](CC(N)=O)C(=O)N[C@@H](Cc1ccccc1)C(=O)N[C@@H](Cc1ccccc1)C(=O)N[C@@H](CO)C(=O)N[C@H](C(=O)N[C@@H](Cc1ccc(O)cc1)C(=O)O)C(C)C)[C@@H](C)CC)C(C)C)[C@@H](C)CC)[C@@H](C)CC)C(C)C)C(=O)N[C@@H](Cc1c[nH]c2ccccc12)C(=O)N[C@@H](CC(N)=O)C(=O)N[C@@H](Cc1ccccc1)C(=O)N[C@@H](Cc1ccccc1)C(=O)N[C@@H](CO)C(=O)N[C@H](C(=O)N[C@@H](Cc1ccc(O)cc1)C(=O)O)C(C)C` [Cys_M1_6S homodimer] (I: H-C[AEEA]HPFSIKNVFSIWNFFSVY-OH / II: H-C[AEEA]HPFSIKNVFSIWNFFSVY-OH; disulfide I:1-II:1; C-terminus assumed), the “inhibition of the interaction between CD40L and CD40” value is recorded as “enhanced inhibition” in experiment [1] (listed as 6-6 dimer) and “inhibition” in experiment [1] (listed as homodimer of the Phylomer peptide M1—6). Further, in experiment [2], the “inhibition of CD40L-induced CD86 expression on primary B-cells” value (“inhibition … on primary B-cells” below) was “enhanced inhibition”.

Turning to `CC[C@H](C)[C@H](NC(=O)[C@H](CS)NC(=O)[C@H](Cc1ccccc1)NC(=O)[C@@H](NC(=O)[C@H](CC(N)=O)NC(=O)[C@H](CCCCN)NC(=O)[C@@H](NC(=O)[C@H](CO)NC(=O)[C@H](Cc1ccccc1)NC(=O)[C@@H]1CCCN1C(=O)[C@@H](N)Cc1c[nH]cn1)[C@@H](C)CC)C(C)C)C(=O)N[C@@H](Cc1c[nH]c2ccccc12)C(=O)N[C@@H](CC(N)=O)C(=O)N[C@@H](Cc1ccccc1)C(=O)N[C@@H](Cc1ccccc1)C(=O)N[C@@H](CO)C(=O)N[C@H](C(=O)N[C@@H](Cc1ccc(O)cc1)C(=O)O)C(C)C` [CD40L M1_6] (H-HPFSIKNVFCIWNFFSVY-OH; N-terminus and C-terminus assumed), in experiment [1], the “inhibition of the interaction between CD40L and CD40” value is “inhibition”.

As for FHRMYVILQIIWFITPRWTFP [CD40L M7_206rd], the EC50 worked out at 12 nM in experiment [1] (setting [4]) and 2000 nM in experiment [2] (setting [5]).

As for “VHSYYVWILQFYYKFRSYRWHYQIS [CD40L M1_82rd]”, the EC50 came out at 10 nM in experiment [1] (setting [4]) and 470 nM in experiment [2] (setting [5]).

Take `CC[C@@H](C)[C@@H](NC(=O)[C@@H](Cc1ccccc1)NC(=O)[C@@H](C)NC(=O)[C@H](NC(=O)[C@@H](CC(C)C)NC(=O)[C@H]1CCCN1C(=O)[C@@H](Cc1ccccc1)NC(=O)[C@@H](CCC(N)=O)NC(=O)[C@@H](Cc1ccc(O)cc1)NC(=O)[C@@H](CC(C)C)NC(=O)[C@@H](Cc1c[nH]cn1)NC(=O)[C@@H](CCCNC(=N)N)NC(=O)[C@@H](CS)NC(=O)[C@H](N)CCCNC(=N)N)C(C)C)C(=O)N[C@H](CO)C(=O)N[C@H](Cc1c[nH]c2ccccc12)C(=O)N[C@H](CCC(N)=O)C(=O)N[C@@H](C(=O)N1CCC[C@@H]1C(=O)N[C@H](Cc1ccccc1)C(=O)N[C@H](Cc1ccccc1)C(=O)N[C@H](Cc1c[nH]c2ccccc12)C(=O)NCC(=O)N[C@H](Cc1ccc(O)cc1)C(=O)N[C@H](CCCCN)C(=O)N[C@H](CC(C)C)C(=O)N[C@@H](C(=O)N[C@H](Cc1c[nH]cn1)C(=O)N[C@H](CO)C(=O)N[C@H](CCCNC(=N)N)C(=O)N[C@H](Cc1ccc(O)cc1)C(=O)N1CCC[C@@H]1C(=O)N[C@@H](C(=O)N[C@H](Cc1ccccc1)C(=O)N1CCC[C@@H]1C(=O)N[C@H](CC(C)C)C(=O)O)C(C)C)C(C)C)C(C)C` [CD40L M1_18rd] (H-[dR][dC][dR][dH][dL][dY][dQ][dF][dP][dL][dV][dA][dF][dI][dS][dW][dQ][dV][dP][dF][dF][dW]G[dY][dK][dL][dV][dH][dS][dR][dY][dP][dV][dF][dP][dL]-OH; N-terminus and C-terminus assumed): the “inhibition … on primary B-cells” value in experiment [2] is recorded as “enhanced inhibition”.

Regarding `CC[C@H](C)[C@H](NC(=O)[C@H](CO)NC(=O)[C@H](Cc1c[nH]c2ccccc12)NC(=O)[C@H](CCC(N)=O)NC(=O)[C@@H](NC(=O)[C@@H]1CCCN1C(=O)[C@H](Cc1ccccc1)NC(=O)[C@H](Cc1ccccc1)NC(=O)[C@H](Cc1c[nH]c2ccccc12)NC(=O)CNC(=O)[C@H](Cc1ccc(O)cc1)NC(=O)[C@H](CCCCN)NC(=O)[C@H](CC(C)C)NC(=O)[C@@H](NC(=O)[C@H](Cc1c[nH]cn1)NC(=O)[C@H](CO)NC(=O)[C@H](CCCNC(=N)N)NC(=O)[C@H](Cc1ccc(O)cc1)NC(=O)[C@@H]1CCCN1C(=O)[C@@H](NC(=O)[C@H](Cc1ccccc1)NC(=O)[C@@H]1CCCN1C(=O)[C@@H](N)CC(C)C)C(C)C)C(C)C)C(C)C)C(=O)N[C@@H](Cc1ccccc1)C(=O)N[C@@H](C)C(=O)N[C@H](C(=O)N[C@@H](CC(C)C)C(=O)N1CCC[C@H]1C(=O)N[C@@H](Cc1ccccc1)C(=O)N[C@@H](CCC(N)=O)C(=O)N[C@@H](Cc1ccc(O)cc1)C(=O)N[C@@H](CC(C)C)C(=O)N[C@@H](Cc1c[nH]cn1)C(=O)N[C@@H](CCCNC(=N)N)C(=O)N[C@@H](CS)C(=O)N[C@@H](CCCNC(=N)N)C(=O)O)C(C)C` [CD40L M1_18] (H-LPFVPYRSHVLKYGWFFPVQWSIFAVLPFQYLHRCR-OH; N-terminus and C-terminus assumed), the “inhibition … on primary B-cells” value in experiment [2] is “concentration-dependent inhibition”.

On to “I: H-C[AEEA]PPRYNLFFLFRFYSSFRRDYLYF / II: H-C[AEEA]HPFSIKNVFSIWNFFSVY (disulfide I:1-II:1) [Cys_M1_6S-Cys_M1_9S heterodimer]”, for which the “inhibition of the interaction between CD40L and CD40” value in experiment [1] (listed as 6-9 dimer) is reported as “enhanced inhibition”; in experiment [1] (listed as 6-9 high purity dimer) it was “inhibition”. Besides, in experiment [2], the “inhibition … on primary B-cells” value is on record as “enhanced inhibition”.

As to YVSFFNWISFVNKISFPH [CD40L M1_6rd], the EC50 in experiment [1] (setting [4]) worked out at 20 nM.

For the molecule “I: H-C[AEEA]LLLFFFSPPFSIFSFSLTTLS / II: H-C[AEEA]HPFSIKNVFSIWNFFSVY (disulfide I:1-II:1) [Cys_M1_6S-Cys_M1_189S heterodimer]”, the “inhibition of the interaction between CD40L and CD40” value in experiment [1] (listed as 6-189 dimer) was “enhanced inhibition”; in experiment [1] (listed as 6-189 high purity dimer) it was “inhibition”. In experiment [2], the “inhibition … on primary B-cells” value is “enhanced inhibition”.

“RVWNSFWLHIGGRQVGSPVFLSYFRNRVWRP [CD40L M1_50rd]”: the EC50 in experiment [1] (setting [4]) turned out to be 568 nM.

As for AQWWHHRFSFLGAIQFFERGAAD [CD40L M1_30rd], the EC50 in experiment [1] (setting [4]) stood at 24 nM.

For `CC[C@H](C)[C@H](NC(=O)[C@H](CO)NC(=O)[C@H](Cc1ccccc1)NC(=O)[C@@H]1CCCN1C(=O)[C@@H]1CCCN1C(=O)[C@H](CO)NC(=O)[C@H](Cc1ccccc1)NC(=O)[C@H](Cc1ccccc1)NC(=O)[C@H](Cc1ccccc1)NC(=O)[C@H](CC(C)C)NC(=O)[C@H](CC(C)C)NC(=O)[C@@H](N)CC(C)C)C(=O)N[C@@H](Cc1ccccc1)C(=O)N[C@@H](CS)C(=O)N[C@@H](Cc1ccccc1)C(=O)N[C@@H](CO)C(=O)N[C@@H](CC(C)C)C(=O)N[C@H](C(=O)N[C@H](C(=O)N[C@@H](CC(C)C)C(=O)N[C@@H](CO)C(=O)O)[C@@H](C)O)[C@@H](C)O` [CD40L M7_189] (H-LLLFFFSPPFSIFCFSLTTLS-OH), the EC50 in experiment [1] (monomeric non-PEGylated (unmodified) base peptide; 50% reduction in control emission at 520-620 nm; read-out: EC50nmodified) CD40L/CD40-Fc/BAF617) is 120 nM.

Regarding SKVRMQFDIINFPVNVGFLVFSH [CD40L M1_42rd], in experiment [1] (setting [4]), the EC50 was 16 nM.

B1: CD40L: CD40 ligand used to induce CD86 expression on primary B-cells (protein)
chain: ENSFEMQKGDQNPQIAAHVISEASSKTTSVLQWAEKGYYTMSNNLVTLENGKQLTVKRQGLYYIYAQVTFCSNREASSQAPFIASLCLKSPGRFERILLRAANTHSSAKPCGQQSIHLGGVFELQPGASVFVNVTDPSQVSHGTGFTSFGLLKL
With B1, the EC50 in experiment [2] (read-out: EC50 value of CD40L induction of CD86 expression, absence of a peptidyl inhibitor) was roughly 9 nM.

B2: CD40L M2_159 (peptide)
peptide: LLYVKVICFFCMLVQYNNFQTYK
notes: Base peptide
B2 registered an EC50 in experiment [3] of 120 nM.

B3: CD40L M1_42 (peptide)
peptide: HSFVLFGVNVPFNIIDFQMRVKC
notes: Base peptide
The molecule B3 came in with an EC50 in experiment [3] of 200 nM.

For the origin of these results see patent US20130266605A1, “PEPTIDE INHIBITORS OF CD40L SIGNALING AND USES THEREFOR” (PHYLOGICA LIMITED, priority 2010, published 2013).
